Data reported in ChEMBL document CHEMBL4483862, “Open-source discovery of chemical leads for next-generation chemoprotective antimalarials” (2018).

Test system: Plasmodium berghei
Experiment: Luciferase/luciferin-expressing antifolate-resistant parasites were used to infect a culture of HepG2 cells that were pre-incubated with compounds. Infected hepatocytes emit light due to the luciferase reaction. Assay results are presented as the percent inhibition of light emission compared to control. […]
Format: functional
Conditions: sporozoite; for IC50: read-out: LUCIFERASE INFECTION ASSAY - IC50; for IC90: read-out: LUCIFERASE INFECTION ASSAY - IC90

| Structure (SMILES) | IC50 | IC90 |
| --- | --- | --- |
| N#Cc1ccsc1NC(=O)c1ccc(Cl)c([N+](=O)[O-])c1 | > 10 µM | > 10 µM |
| CCOC(=O)/C=C/C(=O)OCC(=O)NC(c1ccccc1)c1ccccc1 | > 10 µM | > 10 µM |
| COCCCNC(=O)Cc1ccc(S(=O)(=O)N2CCOCC2)s1 | > 10 µM | > 10 µM |
| C/C(=N\Nc1nc2ccccc2[nH]1)c1ccc(N2CCOCC2)cc1 | > 10 µM | > 10 µM |
| Cc1ccc(N2C(=O)N(CC(=O)N3CCc4ccccc43)C(=O)C2C)cc1 (stereo unspecified) | > 2 µM | > 2 µM |
| C/C(N)=C(/C#N)C(=O)COC(=O)c1cc(-c2cccc3ccccc23)nc2ccccc12 | > 10 µM | > 10 µM |
| O=[N+]([O-])c1ccccc1N1CCN(Cc2nc3ccccc3s2)CC1 | > 10 µM | > 10 µM |
| Cc1ccc(Nc2nc(COC(=O)c3ccccc3Sc3ccc(C(F)(F)F)cc3[N+](=O)[O-])cs2)cc1 | > 10 µM | > 10 µM |
| O=C(Nc1ccccc1)c1ccccc1OCC(O)COCc1ccc(Cl)cc1 (stereo unspecified) | > 10 µM | > 10 µM |
| COc1ccccc1NC(=O)Cc1noc(CNc2ccc(F)cc2C)n1 | > 10 µM | > 10 µM |
| Cc1ccc(Sc2ccc(NC(=O)C3CC(=O)N(C4CC4)C3)cc2)c(C)c1 (stereo unspecified) | > 10 µM | > 10 µM |
| Cc1nc(SCC(=O)N2CCC(c3nc4ccccc4o3)CC2)c2c(C)c(C)sc2n1 | > 10 µM | > 10 µM |
| CN(C(=O)CCN1C(=O)CCC1=O)c1ccccc1 | > 10 µM | > 10 µM |
| Cc1nc2cc(NC(C)C(=O)Nc3ccc([N+](=O)[O-])cc3Cl)ccc2o1 (stereo unspecified) | > 10 µM | > 10 µM |
| NC(=O)c1cccc(CNc2cnn(CCOc3ccc(Cl)cc3)c(=O)c2Cl)c1 | 2.11 µM | > 10 µM |
| CC1C(OC(=O)c2ccc(CS(C)(=O)=O)cc2)CC2CC1C2(C)C (stereo unspecified) | > 10 µM | > 10 µM |
| COc1ccc(OCCCN2CCN(C(=O)C34CC5CC(CC(C5)C3)C4)CC2)cc1 | > 10 µM | > 10 µM |
| COc1ccc(OCCSCc2cc(=O)n3c4c(sc3n2)CCCC4)cc1 | > 10 µM | > 10 µM |
| COc1ccccc1CNC(=O)CSc1nnc(-c2ccccc2)c2ccccc12 | > 10 µM | > 10 µM |
| CS(=O)(=O)c1ccc(N2CCCN(c3ccc(C(F)(F)F)cn3)CC2)c([N+](=O)[O-])c1 | > 10 µM | > 10 µM |
| Cc1cccc(N2CCN(CC(=O)c3ccc[nH]3)CC2)c1C | > 10 µM | > 10 µM |

| Structure (SMILES) | IC50 | IC90 |
| --- | --- | --- |
| Cc1sc(-c2ccco2)nc1C(=O)Nn1cnc2ccccc21 | > 10 µM | > 10 µM |
| N#Cc1ccc(F)c(CN2CCN(Cc3nc(-c4ccc(Cl)cc4)no3)CC2)c1 | > 10 µM | > 10 µM |
| Cn1c(N)c(C(=O)COC(=O)c2ccccc2NCCC2=CCCCC2)c(=O)n(C)c1=O | > 10 µM | > 10 µM |
| O=C(Cn1[nH]c(=O)c2ccccc2c1=O)NCc1ccc(CN2CCOCC2)cc1 | > 10 µM | > 10 µM |
| CCCc1cc(=O)nc(SCC(=O)NC(=O)c2ccc(C(C)(C)C)cc2)[nH]1 | > 10 µM | > 10 µM |
| CCCOc1ccccc1NC(=O)c1cnc2c(c1)c(=O)[nH]c(=O)n2C | > 10 µM | > 10 µM |
| O=C(c1ccc(O)cc1)C1CCN(C(=O)c2cccc(N3CCCC3=O)c2)CC1 | > 10 µM | > 10 µM |
| COCCN(Cc1nc(=O)c2ccccc2[nH]1)C(=O)C1=NN(c2ccccc2)C(c2ccccc2)C1 (stereo unspecified) | > 10 µM | > 10 µM |
| CC(C)c1cccc(N2CC(C(=O)N3CCC(C(N)=O)CC3)CC2=O)c1 (stereo unspecified) | > 10 µM | > 10 µM |
| CNC(=O)Cc1ccc(NC(=O)CCSC)cc1 | > 10 µM | > 10 µM |
| CC(C)c1cc(=O)oc2cc(OS(=O)(=O)c3cc(C(N)=O)n(C)c3)ccc12 | > 10 µM | > 10 µM |
| CCOc1ccc(S(=O)(=O)N2CCCCC2)cc1NC(=O)C1CC=CCC1 (stereo unspecified) | > 10 µM | > 10 µM |
| Cc1cc2oc(=O)cc(CN3CCN(S(=O)(=O)c4ccc([N+](=O)[O-])cc4)CC3)c2cc1Cl | 4.19 µM | 8.57 µM |
| Cn1c(Cc2ccccc2)ns/c1=N\C(=Nc1ccccc1)c1ccccc1 | > 10 µM | > 10 µM |
| NC(=O)c1ccc(C(F)(F)F)n(CC(=O)c2ccc3c(c2)OCCO3)c1=O | > 10 µM | > 10 µM |
| Cc1ccc(Cn2ncc3c(C(=O)Nc4ccc(C)c(F)c4)cc(C)nc32)cc1 | > 10 µM | > 10 µM |
| Cc1csc(=O)n1CC(=O)Nc1ccccc1C(=O)NCc1ccco1 | > 10 µM | > 10 µM |
| O=C(Cc1noc2ccccc12)Nc1ccc(C(=O)N2CCCC2)cc1 | > 10 µM | > 10 µM |
| CNc1snc(C)c1C(=O)NCC(C(C)C)N1CCc2ccccc2C1 (stereo unspecified) | > 10 µM | > 10 µM |
| CN(Cc1ccccc1N1CCOCC1)C(=O)/C=C/c1c(Cl)nc2ccccn12 | > 10 µM | > 10 µM |
| Cc1ccc(-c2cc(C(=O)NNC(=O)c3nn(C)c(=O)c4ccccc34)[nH]n2)cc1 | > 10 µM | > 10 µM |

| Structure (SMILES) | IC50 | IC90 |
| --- | --- | --- |
| COc1ccccc1-c1nc(COC(=O)c2cccnc2SC)cs1 | > 10 µM | > 10 µM |
| CCCCn1nnnc1COC(=O)c1ccccc1Sc1ccccc1C#N | > 10 µM | > 10 µM |
| Cc1ccc(C)c(S(=O)(=O)CCN2C(=O)C(=O)N(Cc3cccs3)C2=O)c1 | > 10 µM | > 10 µM |
| Cc1cc(C(=O)Cn2cnc3ccc([N+](=O)[O-])cc3c2=O)c(C)n1CC1COc2ccccc2O1 (stereo unspecified) | > 10 µM | > 10 µM |
| O=C(NC1CC1)c1ccc(CN(C2CC2)S(=O)(=O)c2ccccc2F)cc1 | 1.29 µM | 1.51 µM |
| CCN(c1ccccc1)S(=O)(=O)c1ccc(Cl)c(C(=O)Nc2ccn(C)n2)c1 | > 10 µM | > 10 µM |
| O=c1nc(/C=C/c2cccc3cccnc23)[nH]c2sc3c(c12)CCCCC3 | > 10 µM | > 10 µM |
| CCN(CC)S(=O)(=O)c1ccc2nnc(Sc3nc(C)nc4sc5c(c34)CCCC5)n2c1 | > 10 µM | > 10 µM |
| CN(Cc1nc(-c2ccccc2)c2ccccc2n1)Cc1nc(=O)c2ccccc2[nH]1 | > 10 µM | > 10 µM |
| Cc1nc2ccccc2n1CCNC(=O)N1CCN(c2ccc(C(F)(F)F)cc2[N+](=O)[O-])CC1 | > 10 µM | > 10 µM |
| CN(CCOc1ccccc1F)C(=O)c1cc(S(=O)(=O)N2CCCC2)c[nH]1 | > 2 µM | > 2 µM |
| CC(Nc1ccc(C(N)=O)cc1[N+](=O)[O-])C12CC3CC(CC(C3)C1)C2 (stereo unspecified) | 5.52 µM | > 10 µM |
| O=C(NCCOc1ccccc1F)NCC1CC1 | > 10 µM | > 10 µM |
| Cn1c(CSc2nc3ccccc3s2)nn(CN2CCCc3ncccc32)c1=S | > 10 µM | > 10 µM |
| Cn1cccc1C(=O)NC(=O)COC(=O)CCNC(=O)c1ccc([N+](=O)[O-])cc1 | > 10 µM | > 10 µM |
| O=C(CCc1ccc(-c2ccccc2)o1)Nc1nc(CN2CCCCC2)cs1 | > 10 µM | > 10 µM |
| Cc1ncsc1CCOC(=O)c1cc(Cl)c2c(c1)OCCO2 | > 10 µM | > 10 µM |
| N#Cc1c(CCCNC(=O)/C=C/c2ccc(Cl)c(C(F)(F)F)c2)nn(-c2ccc(F)cc2)c1N | > 10 µM | > 10 µM |
| Cc1cc(C)cc(C(=O)/C=c2\[nH]c(=O)/c(=C\c3cccs3)s2)c1 | > 10 µM | > 10 µM |
| CCc1cc(=O)oc2cc(OCc3csc(N(C(C)=O)c4cccc(C)c4)n3)ccc12 | > 10 µM | > 10 µM |
| CC(C)c1ccc(CSc2nnc(CC3CCS(=O)(=O)C3)o2)cc1 (stereo unspecified) | > 10 µM | > 10 µM |

| Structure (SMILES) | IC50 | IC90 |
| --- | --- | --- |
| COc1ccc(CNC(=O)NC2CCCCCCC2)cn1 | > 10 µM | > 10 µM |
| Cc1ccccc1Nc1nc(N)nc(CSc2nc(=O)c3c(-c4cccs4)csc3[nH]2)n1 | > 10 µM | > 10 µM |
| CCCCNC(=O)NCCc1ccc2c(c1)OCCO2 | > 10 µM | > 10 µM |
| Cc1ccc(-c2nn(CN(C)CC(=O)NC(C)C)c(=S)n2C)cc1 | > 10 µM | > 10 µM |
| Cc1ccc(-c2nnc(SCC(=O)N3c4ccccc4OCC3c3ccccc3)[nH]2)cc1 (stereo unspecified) | > 10 µM | > 10 µM |
| CNC(=O)c1ccc(C)c(C)c1 | > 10 µM | > 10 µM |
| Cc1cc(N2CCN(C(=O)C(C)Oc3ccc(F)cc3)CC2)nc(C(C)C)n1 (stereo unspecified) | > 10 µM | > 10 µM |
| Cc1ccc(-n2nc(C)c(NC(=O)Cn3c(NCc4ccccc4)nc4ccccc43)c2C)cc1 | > 10 µM | > 10 µM |
| COc1ccc(-c2csc(CC(=O)NCc3ccccc3)n2)c(OC)c1 | > 10 µM | > 10 µM |
| NC(=O)C1Cc2ccccc2CN1S(=O)(=O)c1cccc2c1N=S=N2 (stereo unspecified) | > 10 µM | > 10 µM |
| Cc1ccc(C(=O)Nc2cccc(CNC(C)c3ccc(F)cc3F)c2)cc1 (stereo unspecified) | > 10 µM | > 10 µM |
| Cc1nc2sccn2c1C(=O)c1ccc(NS(=O)(=O)c2cc(C(=O)O)n(C)c2)cc1 | > 10 µM | > 10 µM |
| CN(Cc1ccc(Br)s1)c1ncccc1C(N)=O | > 2 µM | > 2 µM |
| O=C1N(Cc2ccccc2)c2ccccc2C12Oc1ccc(Br)cc1-c1cc(-c3ccccc3)nn12 (stereo unspecified) | 9.29 µM | > 10 µM |
| CCCn1c(NC(=O)C2CCN(c3ccc4nnc(C(F)(F)F)n4n3)CC2)nc2ccccc21 | 6.49 µM | > 10 µM |
| CC(C)(C)c1ccc(/C=C/C(=O)NCc2ccc(NC(=O)C3CC3)cc2)cc1 | 2.38 µM | 6.63 µM |
| Cc1nn(-c2ccccc2)c(C)c1CC(=O)Nc1ccc2c(c1)OC(F)(F)O2 | > 10 µM | > 10 µM |
| CC(=O)Nc1ccc(S(=O)(=O)N(C)CC(=O)NCCC(=O)N2CCCC2)cc1 | > 10 µM | > 10 µM |
| CC1CC(C)CN(S(=O)(=O)N2CCN(c3ccc(C(F)(F)F)cc3[N+](=O)[O-])CC2)C1 (stereo unspecified) | > 10 µM | > 10 µM |
| CC(C)(C)c1ccc(/C=C2\CCCc3c2nc2ccccc2c3C(=O)OCC(=O)N2CCOCC2)cc1 | 8.09 µM | > 10 µM |
